Experiments:
[1] = tested on: endothelial human sapiens cell line EA.hy926; assay: Activity against endothelial cell line EA.hy926; assay type: cell-based; conditions: EA.hy 926, read-out: IC50 against EA.hy926
[2] = tested on: breast cancer cell line MCF-7; assay: Activity against breast cancer cell line MCF-7; assay type: cell-based; conditions: Homo sapiens, MCF7, read-out: IC50 against MCF-7

CCc1cc(=O)n2c(=O)/c(=C/c3ccc(-c4ccc(C)cc4)cc3)sc2n1 [Compound 15, (Z)-7-ethyl-2-((4′-methyl-[1,1′-biphenyl]-4-yl)methylene)-5H-thiazolo[3,2-a]pyrimidine-3,5(2H)-dione]
IC50 [1]: > 250 µM
IC50 [2]: > 250 µM

From article PMC9049071 (RSC Advances, 2020)
